Data on one molecule can be found in US20200101042A1, “4-METHYLUMBELLIFERONE TREATMENT FOR IMMUNE MODULATION” (Benaroya Research Institute at Virginia Mason, priority 2013, published 2020).

Series [1] has as its system MOG35-55 peptide-induced EAE in C57B1/6 mice. The experiment in a line: MOG35-55 peptide-induced EAE mouse model of MS, EAE incidence and score. Type of series: in vivo. To be noted: for incidence of EAE: control 9/10. An excerpt:
FIGS. 12A, 12B, and 12C graphically illustrate the mean EAE score as a function of days post induction in subjects treated with 4-MU according to a pretreatment, treatment, or intervention protocol, respectively.
For FIGS. 12A, 12B, and 12C, *P<0.05, ** P<0.01, ***P<0.001, Mann-Whitney.

Series [2] has as its system cells infiltrating into the spinal cord. Put plainly: Immunologic profile of cells infiltrating the spinal cord at peak of EAE. It counts as in vivo, mouse. To be noted: for CD4+ T-cell infiltration into the spinal cord: EAE day 22 after immunization. The protocol: The effect of 4-MU treatment on EAE pathogenesis was analyzed by evaluating the immunologic profile of cells infiltrating into the spinal cord at the peak of disease (day 22 after immunization).
Further, considering the differential pathologic roles that Th1 and Th17 cells have in EAE (Axtell, R. C., et al., Clin. Rev. Allergy Immunol. 44, 114-120 (2013); Lowther, D. E., et al., Acta Neuropathol. 126, 501-515 (2013)), this change in the local Th cell profile can contribute to the prevention of the autoimmune attack on myelin.

The subject of the next series is FoxP3+ T-cells. The experiment in a line: FoxP3+ T-cell numbers in lymphatic tissue after 4-MU treatment. It counts as in vivo, mouse.
The next series concerns CD4+ CD25+ cells. The experiment in a line: CD25+ of CD4+ T-cells in spleen and lymph nodes of EAE mice. Type of series: in vivo, mouse. To be noted: EAE subjects, 4-MU started before immunization (pretreatment protocol).
In series [3] the test system is insulin in pancreatic islets. The experiment in a line: Immuno-staining for insulin in pancreatic islets after 4-MU treatment. It counts as in vivo, mouse. To be noted: DORmO mice treated with 4-MU, 8 week start treatment group. An excerpt: The animals stained for HA were also stained for insulin. […] The pictures in the upper row show representative images of insulin staining in pancreatic islets in control animals treated with normal chow, (left column) or treated with 4-MU (right column).

For series [4] the following is noted: cited from earlier work.
For series [5], the system named is HA accumulation in the pancreatic islets. Put plainly: Immuno-staining for HA in pancreatic islets after 4-MU treatment. It counts as in vivo, mouse. To be noted: DORmO mice, 8 week start treatment group, versus DORmO mice on control chow. The source says:
HA accumulation in the pancreatic islets was investigated through immuno-staining after 4-MU treatment in a few mice of the 8 week start treatment group. […] The pictures in the upper row show representative images of a HA staining in pancreatic islets in control animals treated with normal chow, left column, or treated with 4-MU, right column.

Another series concerns DORmO mice. The experiment in a line: Blood glucose in DORmO double transgenic mouse model of autoimmune diabetes, 4-MU in chow. Type of series: in vivo. An excerpt: To determine that HA accumulates in the pancreatic islets and creates a permissive environment for autoimmune attacks during autoimmune diabetes disease progression, the DORmO double transgenic mouse model of autoimmune diabetes was used. DORmO mice predictably develop autoimmune diabetes because they are bred to have both a target antigen on their insulin producing beta-cells as well as an immune system that specifically recognizes that antigen. DORmO mice are the result of a cross between RIPmOVA mice (a strain that carries a gene specific for hen egg ovalbumin (OVA) that is only expressed on beta-cells, emulating the auto-antigen) and DO11.10 mice (a strain that carries a T-cell receptor transgene specific for OVA, emulating auto-reactive CD4+ T cells). […] A group of control mice was treated with 4-MU as well in order to see if 4-MU alters the blood glucose levels of those mice. […] The DORmO mice on control chow had to be sacrificed after getting diabetic according to the animal protocol. Another treatment group was established where the 4-MU treatment started at 12 weeks of age when the DORmO mice were already diabetic. […] The animals stained for HA were also stained for insulin. […] The pictures in the upper row show representative images of insulin staining in pancreatic islets in control animals treated with normal chow, (left column) or treated with 4-MU (right column).

[6] abbreviates: EAE mice after 4-MU treatment, FIG. 13B.
Where [7] appears, read: EAE mice, 4-MU treatment, FIG. 13A.

For the molecule `Cc1cc(=O)oc2cc(O)ccc12` [4-MU, 4-methylumbelliferone], the “EAE disease severity (mean EAE score)” value in series [1] (intervention protocol, 4-MU after the onset of neurological symptoms) is given as “significantly ameliorated disease as early as 3 days after start of treatment”. Besides, the “incidence of EAE” value in series [1] (pretreatment protocol, 4-MU 5% w/w in chow from 4 days before immunization) is 1/7; in series [1] (treatment protocol, 4-MU 5% w/w in chow after immunization boost on day 2, before symptoms), 2/10. The “CD4+ T-cell infiltration into the spinal cord” value is “moderately reduced” in series [2] (intervention treatment); “substantially reduced” in series [2] (pretreatment and early treatment with 4-MU). In addition, the “IFN-γ producing Th1 populations among CD4+ T-cells in the CNS” value in series [2] (setting [6]) was “mainly reduced”. In addition, the “IL-17 producing Th17 population among CD4+ T-cells in the CNS” value in series [2] (setting [6]) is “less affected”. Also, in series [2] (EAE mice on 4-MU), the “total lymphocyte counts in lymphatic organs (generalized immunosuppression)” value is “unchanged”. For the same molecule, the “infiltration of CD8+ and CD4+ lymphocytes and macrophages” value in series [2] (setting [7]) was “reduced infiltration”. Also, the “total numbers of cell infiltrates in spinal cord” value in series [2] (setting [7]) is reported as “lower total numbers of cell infiltrates”. Further, the “FoxP3+ T-cells in spleen, MLN, ILN and PLN” value in the series on FoxP3+ T-cells (D0.11 mice following OVA immunization, FIG. 13D) is recorded as “increase in FoxP3+ T-cells”. In the series on FoxP3+ T-cells (D0.11 mice on 4-MU, data not shown), the general immunosuppression entry was “did not induce a general immunosuppression”. For the same molecule, in the series with FoxP3+ T-cells (healthy mice, data not shown), the “numbers of FoxP3+ T-cells in lymphatic tissue” value is “significantly increased”. In addition, in the series with CD4+ CD25+ cells, the “number of CD4+ CD25+ cells in the spleen and lymph nodes” value is “increased number”. In addition, the “insulin in the islets (immuno-staining)” value in series [3] was “still had a significant amount of insulin in the islets”. Besides, in series [4] (general statement), the toxicity entry is “no known toxicity”. For the same molecule, the “safety profile in clinical use” value in series [4] (human use in Europe and Asia (biliary spasm, gallstones)) is listed as “excellent safety profile”. Also, the “HA accumulation in pancreatic islets (immuno-staining)” value in series [5] is on record as “significant decrease”. Also, the normo-glycemia entry with DORmO mice (DORmO mice, 4-MU added to chow) was “restored normo-glycemia”. Moreover, the “blood glucose level / development of diabetes” value in the series on DORmO mice (DORmO mice, 4-MU in chow starting at 5 weeks of age) is on record as “not to become diabetic”. Moreover, the blood glucose level entry in the series with DORmO mice (DORmO mice, 4-MU treatment starting at 8 weeks of age, at 23 weeks of age) was “normal blood glucose level”. Further, the blood glucose levels entry in the series with DORmO mice (already diabetic DORmO mice, 4-MU starting at 12 weeks of age, after 1 week of treatment) is “decrease of the blood glucose levels”.
